Legend:
HCT116 = assay: MTT cytotoxicity assay, HCT116; assay type: cell-based; details: Homo sapiens, HCT-116, 72 h, MTT; for cytotoxicity at 50 µM: read-out: % Cytotoxicity (50 µM) HCT116; for IC50: 0.05–50 µM
Method: (§1) Cytotoxicity assays were performed by using the MTT reduction method as described previously. Briefly, cancer cell lines were plated in flat-bottom 96-well plates at a cell concentration of 5 × 10^3 cells/well for the fastest growing lines, such as HEK293 and HT29 cells and 1 × 10^4 cells/well for more slowly growing lines, such as HCT116, H1975, BxPC-3, AsPC-1, B16-F10 and DAOY. Then, cells were incubated with the synthesised compounds at different concentrations (from 0.05 to 50 µM) in 200 µL with 10% FBS in RPMI 1640 or DMEM F12 culture medium at 37 °C for 72 h. Later, 10 µL of MTT were added at a final concentration of 0.5 mg/mL, incubated at 37 °C for 4 h, and then solubilised with 10% sodium dodecyl sulphate (SDS) in 0.1 mM HCl and incubated overnight at 37 °C. Formazan formation was measured at 570 nm in a multiwell plate reader (Cytation 5, Biotek Instruments, Winooski, VT, USA). Three independent biological replicates were performed.

HT29 [1] = assay: MTT cytotoxicity assay, HT29; assay type: cell-based; details: Homo sapiens, HT-29, 72 h, MTT; for cytotoxicity at 50 µM: read-out: % Cytotoxicity (50 µM) HT29; for IC50: 0.05–50 µM
Method: as §1

Daoy = assay: MTT cytotoxicity assay, Daoy; assay type: cell-based, human; details: Homo sapiens, Daoy, 72 h, MTT; for cytotoxicity at 50 µM: read-out: % Cytotoxicity (50 µM) DAOY;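 on all read-outs here: viability read as formazan absorbance at 570 nm after MTT reduction, three independent biological replicates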
H1975 = assay: MTT cytotoxicity assay, H1975; assay type: cell-based; details: Homo sapiens, NCI-H1975, 72 h, MTT; for cytotoxicity at 50 µM: read-out: % Cytotoxicity (50 µM) H1975; for IC50: 0.05–50 µM
Method: as §1

AsPC-1 = assay: MTT cytotoxicity assay, AsPC-1; assay type: cell-based; details: Homo sapiens, ASPC1, 72 h, 0.05–50 µM
Method: as §1

BxPC-3 = assay: MTT cytotoxicity assay, BxPC-3; assay type: cell-based; details: Homo sapiens, 72 h, 0.05–50 µM
Method: as §1

HT29 [2] = assay: CFSE proliferation assay, HT29; assay type: cell-based, human; details: 19 µM, 48 h
Method: (§2) HT29 and HEK293 cells were resuspended at 1 × 10^6/mL in DMEM F12 without FBS. A 5 mM CFSE stock solution carboxyfluorescein diacetate succinimidyl ester (Cell Proliferation Kit, Life Technologies, Carlsbad, CA, USA) in DMSO was added to a final concentration of 5 µM and incubated at 37 °C for 15 min protected from light. At the end of the incubation period, the cells were immediately washed twice in cold PBS 1X/no-FBS. Cells were washed three times in PBS 1×/10%-FBS and resuspended in the same medium and plated in 12-well plates at a density of 1 × 10^5 cells/200 µL medium and grown overnight at 37 °C in a 5% CO2 humidified atmosphere. […] The cells were collected and then analysed by flow cytometry (BD; FACScanto II, Mountain View, CA, USA) and data were processed using FCS Express v6 software. Two independent biological replicates were performed.

HEK293 = assay: CFSE proliferation assay, HEK293; assay type: cell-based, human; details: 19 µM, 48 h
Method: as §2

HT29 [3] = assay: Cell cycle analysis (PI, flow cytometry), HT29; assay type: cell-based, human; details: 19 µM, 24 h, compared to the control
Method: HT29 and HEK293 cells were plated in 6-well plates at a density of 2.0 × 10^5 cells/1.5 mL/well and grown overnight at 37 °C in a 5% CO2 humidified atmosphere. […] Aliquots of cells were collected, pelleted, washed, and fixed with ethanol (70% v/v) for at least 30 min at 4 °C. Cells were resuspended twice in PBS and, after centrifugation and elimination of the supernatant, they were finally resuspended in a PBS solution containing propidium iodide (PI; […], Invitrogen), RNase A ([…], Invitrogen). After a final incubation for 1 h in the dark at 37 °C, the PI signal was measured using a FACS Canto II Flow-cytometer (BD; Mountain View, CA) with a 488 nm excitation laser, captured and FACS DIVA was used as the acquisition software. The percentage of cells in each phase was analysed using the FCS Express v6 software. Two independent biological replicates were performed.

Gli1 mRNA in Smo−/− MEFs = assay: Gli1 mRNA (qRT-PCR) in Smo−/− MEFs; assay type: cell-based, mouse; details: 24 h and/or 48 h
Method: HEK293T and Smo^−/−, Ptch^−/− MEFs cells were cultured in DMEM plus 10% FBS, 1% L-glutamine and antibiotics. Transient transfections were performed using DreamFectTM Gold transfection reagent (Oz Biosciences SAS, Marseille, France) following the manufacturer’s instructions and for varying periods of time depending on the experiment (24–72 h). […] Vehicle (DMSO) was used as control.
Total RNA was isolated with Trizol (Invitrogen/Life Technologies, Carlsbad, CA, USA) from Smo^−/− MEFs, Ptch^−/− MEFs or HT29 cells treated for 24 h and/or 48 h with 4s at different concentrations and reverse transcribed with the SensiFAST cDNA Synthesis Kit (Bioline Reagents Limited, London, UK). Quantitative real-time PCR (Q-PCR) analysis of Gli1 and housekeeping (HPRT, TBP, HMBS) mRNA levels was performed on each cDNA sample using the VIIA7 Real Time PCR System employing Assay-on-Demand Reagents (Life Technologies) as previously described. […] Each amplification reaction was performed in triplicate, the average of the three threshold cycles was used to calculate the amount of transcript in the sample (using SDS version 2.3 Software). mRNA quantification was expressed in arbitrary units as the ratio of the sample quantity to the quantity of the calibrator (ΔCt method). […]

[4] = test system: GLI1-responsive luciferase reporter in HCT116 cells; assay: HH-dependent GLI luciferase reporter assay in HCT116; assay type: cell-based, human; details: 24 h, 4s 1.5 µM, vismodegib 1 µM; for activation induced by the agonist purmorphamine: purmorphamine 20 µM
Method: Luciferase and renilla activity were assayed with a dual-luciferase assay system according to the manufacturer’s instructions (Cignal Reporter Gli-luciferase, ADN, Qiagen, Hilden, Germany). Results were expressed as luciferase/renilla ratios and represent the mean of triplicate values in one assay.
Supplemental Figure S2: Luciferase reporter activity dependent on the Hh pathway.
This assay was performed in HCT116 cells stably transformed with a Gli responsive luciferase reporter gene and a renilla luciferase gene (normalization control), treated for 24 […]
renilla activity were assayed with the dual-luciferase assay system Cignal Reporter Gli - luciferase (ADN, Qiagen). Results are expressed as luciferase/renilla activity ratios and represent the mean of triplicate values from one assay. […]
(1 picture or pasted object on this page, not shown here)

| SMILES | cytotoxicity at 50 µM (HCT116) [%] | IC50 (HCT116) [µM] | cytotoxicity at 50 µM (HT29 [1]) [%] | IC50 (HT29 [1]) [µM] | cytotoxicity at 50 µM (Daoy) [%] | cytotoxicity at 50 µM (H1975) [%] | IC50 (H1975) [µM] | IC50 (AsPC-1) [µM] | IC50 (BxPC-3) [µM] | HT29 cell proliferation (CFSE) (HT29 [2]) | HEK293 cell proliferation (CFSE) (HEK293) | decrease in S phase (HT29 [3]) [%] | increase of the G1/G0 phase (HT29 [3]) [%] | GLI1 mRNA levels in Smo−/− MEFs (Gli1 mRNA in Smo−/− MEFs) | basal GLI1 transcription activity [4] | activation induced by the agonist purmorphamine [4] | IC50 (Daoy; 0.05–50 µM) [µM] |
| --- | --- | --- | --- | --- | --- | --- | --- | --- | --- | --- | --- | --- | --- | --- | --- | --- | --- |
| CCCCCCn1cnc2c(-c3ccc(OC(F)(F)F)cc3)nc(N3CCN(c4ccncc4)CC3)nc21 [Compound 4s, 9-Hexyl-2-(4-(pyridin-4-yl)piperazin-1-yl)-6-(4-(trifluoromethoxy)phenyl)-9H-purine] | 99 ± 0.4 | 1.3 ± 0.4 | 25 ± 2.7 | 15 ± 1.2 | 98 ± 0.3 | 99 ± 0.2 | 1.5 ± 0.3 | 1.7 ± 0.05 | 4.1 ± 0.9 | significantly reduced HT29 cell proliferation | no effect | 12 | 24 | did not affect the mRNA levels of GLI1 | did not affect basal GLI1 transcription activity | effectively reduced the activation | – |
| CS(=O)(=O)c1ccc(C(=O)Nc2ccc(Cl)c(-c3ccccn3)c2)c(Cl)c1 [Vismodegib, reference compound] | < 50 | > 50 | < 50 | > 50 | < 50 | 53 ± 1.2 | > 50 | > 50 | > 50 | less effect on reducing proliferation than 4s | less effect on reducing proliferation than 4s | – | 10 | did not affect the mRNA levels of GLI1 | did not affect basal GLI1 transcription activity | effectively reduced the activation | > 50 |
